In publication PMC11350758, “Development of Xanthoangelol-Derived Compounds with Membrane-Disrupting Effects against Gram-Positive Bacteria” (Antibiotics, 2024):
Converted amounts (≈) assume the structure as drawn. Like-named read-outs stand apart in the source and are kept apart here.

Legend:
[1] = In vitro cytotoxicity evaluation; assay type: cell-based; settings: human, LO2 cells
Experimental: A key component in the development of antimicrobial agents for clinical application is the assessment of their potential toxicity to mammalian cells. To assess the cytotoxic impact, compound 9h was chosen to undergo in vitro testing for its cytotoxic effects on LO2 cells.

[2] = system: S. aureus ATCC43300 biofilm formation
Experimental: Bacterial biofilms created by the aggregation of bacteria is considered as one of the main reasons for the development of drug resistance. […] Subsequently, we further assessed the efficiency of 9h to eradicate the preformed biofilm. Matured S. aureus biofilm (grown for 24 h) was treated with compound 9h, and the rate of biofilm disruption was then assessed by the crystal violet staining assay.
Biofilm inhibition assay: S. aureus ATCC43300 was cultured (37 °C, 200 rpm) in MHB broth for 5 h and diluted to 1 × 10^6 CFU/mL. […] The planktonic supernatant cells were discarded and washed with PBS three times. Then, methanol (150 µL) was added to each well for 30 min. After discarding methanol, 0.1% crystal violet solution (150 µL) was added, and biofilms were stained for 15 min. Next, crystal violet solution was removed and washed with PBS three times. Finally, ethanol (150 µL) was pipetted into the wells, and the OD values were measured at 575 nm. The biofilm inhibition (%) = (ODcompound − ODblank)/(ODpositive control − ODblank) × 100%.

[3] = system: Gram-negative bacteria tested; assay: MIC, summary over the Gram-negative bacteria tested; assay type: cell-based; settings: read-out: MICs against the Gram-negative bacteria tested
Experimental: (§1) All target derivatives were assessed for their in vitro antibacterial activities using a broth microdilution assay to test their minimum inhibitory concentrations (MICs) against six Gram-positive strains (S. aureus ATCC31007, S. aureus ATCC25923, S. aureus ATCC43300, E. faecalis ATCC29212, B. subtilis ATCC9372, and S. epidermidis ATCC12228) and four Gram-negative strains (A. baumannii ATCC19606, K. pneumonia ATCC10031, E. coli ATCC25922, and P. aeruginosa ATCC27853). These compounds were also evaluated for their hemolytic activities and membrane selectivity by determining their HC50 (the concentration required to lyse 50% of red blood cells) and SI (HC50/MICs) values, respectively, and vancomycin was used as the positive drug.
MICs of the derivatives were determined by the micro broth dilution method according to the American Clinical and Laboratory Standards Institute (CLSI) standards. Briefly, 2-fold serial dilutions of target compounds were prepared in 96-well plates containing TSB broth. An equal volume of bacterial suspension (10^6 CFU/mL) was then pipetted into each well, and the mixture was incubated at 37 °C for 24 h. […] All biological experiments were repeated three times.

[4] = system: red blood cells; assay: Hemolysis assay; assay type: cell-based, Sheep; settings: concentration required to lyse 50% of red blood cells; 37 °C, 1 h
Experimental: as §1
To further detect the hemolytic toxicity and therapeutic potential of these derivatives, we proceeded to examine the hemolytic activities and membrane selectivity of these derivatives. The HC50 value was defined as the concentration needed for a compound to lyse 50% of red blood cells, and it is often used to evaluate the hemolytic toxicity to eukaryotic cells. […] The selectivity index (SI) was calculated by HC50/MICs of S. aureus ATCC43300 and was used to assess the potency and safety of the compounds. […] Thus, compound 9h was selected as a representative molecule for the in-depth in vitro and in vivo studies.
Sheep blood was used to isolate red blood cells (RBCs), which were then resuspended in 1× PBS (5%). The compounds were dissolved in PBS to give an initial concentration of 5.12 mg/mL, compound solution (100 μL) was added to the first well of a 96-well plate, two-fold serial dilutions of compounds were prepared in 96-well plates, and then 150 μL of 5% RBC suspension was added to each well. This was followed by incubation at 37 °C for 1 h. After incubation, the plate was centrifuged (3500 rpm, 5 min), and 100 μL of supernatant solution from each well was carefully pipetted into a new plate. The absorbance values were measured at 540 nm. Erythrocyte hemolysis rate = (Absorbancecompound – Absorbance negative control)/(Absorbance1% Triton X-100 − Absorbance negative control) × 100%. All biological experiments were repeated three times.

[5] = system: S. aureus ATCC43300; assay: Cytoplasmic membrane depolarization assay, DiSC3(5); assay type: cell-based; settings: 16 μg/mL, at 20 min
Experimental: To explore the antibacterial mechanism of compound 9h, a cytoplasmic membrane depolarization assay was performed against S. aureus ATCC43300 using 3,3′-dipropylthiadicarbocyanine iodide (DiSC3(5)) assay. In general, DiSC3(5) could penetrate the intact cell membranes and was quenched when accumulated inside the bacterial cells. Once the cell membrane was destroyed, DiSC3(5) was released from the cell membrane, leading to a significant increase in fluorescence intensity. […] Moreover, the fluorescence intensity in S. aureus increased in a dose-dependent manner with increasing concentrations of 9h.
Mid-log S. aureus ATCC43300 was collected and then washed with PBS three times. Bacterial suspension (1.0 × 10^8 CFU/mL, 150 μL) was added to a black 96-well plate, and then fluorescent dye DiSC3(5) (10 μM, 50 μL) was pipetted into each well of plates and preincubated in the dark for 30 min. After the incubation, the fluorescence intensity was measured every minute for 6 min using a microplate reader (SpectraMax i3x, Molecular Devices, Sunnyvale, CA, USA) (λex/λem = 622 nm/670 nm). […] All biological experiments were repeated three times.

[6] = system: S. aureus ATCC4330; assay: microbe, parasite or virus in culture; assay type: cell-based; settings: Staphylococcus aureus, read-out: MBC
Experimental: Due to the presence of various biological enzymes in plasma, natural AMPs are susceptible to enzymatic degradation upon entering the bloods, leading to a loss of their antimicrobial activity. To evaluate the plasma stability of active compound 9h, we conducted a stability assay by determining their MBC (minimum bactericidal concentration) values in plasma and different blood components. […] The observed initial increase in the MBC value, followed by remaining unchanged, could potentially be attributed to the initial binding of compound 9h with plasma proteins, causing a reduction in its activity. Once this binding became saturated, the bactericidal activity of the compound remained stable, further indicating the good stability of compound 9h in plasma.
MBCs of the compounds were tested. Furthermore, MBCs of compounds in 50% plasma, 50% serum, and 50% blood suspension were tested. The MBC value is defined as the concentration at which the colony count is less than 5 after 18 h of incubation at 37 °C. All biological experiments were repeated three times.

CC(=O)c1c(OCCCNCCCN2CCN(C)CC2)c2c(c3c1OC(C)(CCC=C(C)C)C=C3)OC(C)(CCC=C(C)C)C=C2 (stereo not drawn) [Compound 9h, 1-(2,8-Dimethyl-2,8-bis(4-methylpent-3-en-1-yl)-5-(3-((3-(4-methylpiperazin-1-yl)propyl)amino)propoxy)-2H,8H-pyrano [2,3-f]chromen-6-yl)ethan-1-one] gave an IC50 [1] of 55 µg/mL (≈ 86.8 µM), a viability at 2 μg/mL ([1]; 2 μg/mL, read-out: Cell Viability (%)) of 88.8% and a viability at 4 μg/mL ([1]; 4 μg/mL, read-out: Cell Viability (%)) of 88.6%. For the same compound, the viability at 8 μg/mL ([1]; 8 μg/mL, read-out: Cell Viability (%)) was 82.6%, the viability at 16 μg/mL ([1]; 16 μg/mL, read-out: Cell Viability (%)) was 78.4% and the viability at 32 μg/mL ([1]; 32 μg/mL, read-out: Cell Viability (%)) was 71.4%. For the same compound, the viability at 64 μg/mL ([1]; 64 μg/mL, read-out: Cell Viability (%)) was 58.1%, the viability at 128 μg/mL ([1]; 128 μg/mL, read-out: Cell Viability (%)) was 19.7% and the “inhibition of S. aureus biofilm formation” value ([2]; 1× MIC (2 μg/mL)) was 8.65%. The “inhibition of S. aureus biofilm formation” value ([2]; 2× MIC) was 10.87%, the MIC [3] was 4 to 16 µg/mL (≈ 6.31 to 25.2 µM) and the HC50 [4] was 98.0 µg/mL. The “increase of DiSC3(5) fluorescence intensity vs blank control” value [5] was “about 5 fold”, the MBC ([6]; ATCC4330, dissolved in Mueller Hinton broth (MHB)) was 16 µg/mL (≈ 25.2 µM) and the MBC ([6]; ATCC4330, in 50% blood (Figure 3B)) was 32 µg/mL (≈ 50.5 µM). The MBC ([6]; ATCC4330, in 50% plasma (Figure 3B)) was 32 µg/mL (≈ 50.5 µM), the MBC ([6]; ATCC4330, in 50% serum (Figure 3B)) was 32 µg/mL (≈ 50.5 µM) and the MBC ([6]; ATCC4330, treatment with 50% plasma, unchanged after 3 and 6 h preincubation (Figure 3A)) was 32 µg/mL (≈ 50.5 µM).
